For 2 compounds, IC50 results are on record in ChEMBL document CHEMBL1150077, “Phospholipase D inhibitors from a Myrsine species” (J Nat Prod, 1995).

What is called IC50 is the concentration at which inhibition is half-maximal. Higher therefore signals weaker potency in that assay.

A short description of assay [1]: Inhibition of fMLP-stimulated phospholipase D in human HL60 cells. It counts as cell-based. The following applies: hl-60.
Assay [2] is described as follows: Inhibition of PMA-stimulated phospholipase D in human HL60 cells. It counts as cell-based. As to conditions: hl-60.

For the compound `C[C@H]1O[C@@H](O[C@H]2[C@H](O[C@H]3CO[C@@H](O[C@H]4CC[C@]5(C)[C@H]6CC[C@]78OC[C@@]9(CCC(C)(C)C[C@H]97)[C@H](O)C[C@@]8(C)[C@]6(C)CC[C@H]5C4(C)C)[C@H](O[C@@H]4O[C@H](CO)[C@@H](O)[C@H](O)[C@H]4O)[C@H]3O)O[C@H](CO)[C@@H](O)[C@@H]2O)[C@@H](O)[C@@H](O)[C@@H]1O`, the IC50 came out at 24 µM in assay [1] and 2 µM in assay [2].

In the case of `CC1(C)CC[C@]23CO[C@@]4(CC[C@@H]5[C@@]6(C)CC[C@H](O[C@@H]7OC[C@H](O[C@@H]8O[C@H](CO)[C@@H](O)[C@H](O)[C@H]8O[C@@H]8OC[C@@H](O)[C@H](O)[C@H]8O)[C@H](O)[C@H]7O[C@@H]7O[C@H](CO)[C@@H](O)[C@H](O)[C@H]7O)C(C)(C)[C@@H]6CC[C@@]5(C)[C@]4(C)C[C@H]2O)[C@@H]3C1` [LYSIKOKIANOSIDE 1], the results for the IC50 in assay [1] and in assay [2] were 8 µM and 3 µM, respectively.
